Measurements as given in patent US8653056B2, “Method of preparation of a soluble formulation of water-insoluble pentacyclic and tetracyclic terpenoids, a soluble formulation of a pentacyclic or tetracyclic terpenoid and a pharmaceutical composition containing this soluble formulation” (Univerzita Karlova V Praze, Prirodovedecka Fakulta, priority 2006, dated 2014).

Columns and labels:
[1] = Bioavailability and pharmacokinetic profile at oral administration to laboratory mice; format: in vivo, outbred mice CD-1; conditions: intragastric single dose 200 μl, soluble cyclodextrin formulation
Method: Determination of Bioavailability and Pharmacokinetic Profile at Oral Administration of the Compounds to Laboratory Mice
Soluble cyclodextrin formulations of terpenoid compounds, prepared in accordance with the aforementioned methods A or B, were administered without dilution to outbred mice CD-1 intragastrically (200 μl in a single dose) as aqueous solutions by injection syringe equipped with a gastric tube. Insoluble compounds were administered intragastrically as well (200 μl in a single dose), but in the form of aqueous suspensions in 0.5-1% carboxymethyl cellulose. In time intervals 2, 4, 6, 8, 12 and 24 h, blood was taken from the mice, the blood was centrifuged and the obtained plasma was subsequently analysed by HPLC-ESI MS technique.
(§1) HPLC-ESI MS technique was used or the determination of the concentration of dissolved triterpenoids. The samples were measured in one analytical batch with calibration solutions and blind control. The sample for the measurement was prepared from 50 μl of aqueous solution containing the inclusion compound by dilution with methanol to the volume of 10 ml. Subsequently, 10 μl of the sample solution after the first dilution is further diluted to 1 ml by the mobile phase. The blind control was obtained from 50 μl of pre-prepared aqueous solution of 2-hydroxypropyl-γ-cyklodextrin by dilution with methanol to 10 ml. Subsequently, 10 μl of the blind control solution after the first dilution is further diluted to 1 ml by methanol. Stock solutions of standards (concentration 0.2 mg/ml) were prepared by weighing 2.00 mg of analyte to 10 ml graduated flask and dissolution in methanol. The calibration samples were then prepared by dilution of the stock solution with mobile phase (0.4 μg/ml resp. 4 μg/ml).
The analysis was carried out at ODS Hypersil 125×2.1 mm, 5 um, SN 0745415X, Thermo EC column, ODS 4.0×3.0 mm precolumn, Phenomenex, mobile phase A—100 mmol/L aqueous solution of ammonium formate, pH is adjusted to 5 by formic acid, B—100 mmol/L methanolic solution of ammonium formate, column temperature: 25° C., linear gradient or isocratic elution, injected volume 30 μl. The concentration was determined by comparison with standard and calculated to the original solution containing the inclusion compound.

[2] = Concentration of dissolved triterpenoid in the aqueous cyclodextrin solution (HPLC-ESI MS); format: physicochemical; conditions: 2-hydroxypropyl-γ-cyclodextrin, 50° C.
Method: (§2) Into the resulting colourless, viscous solution, soluble triterpene derivative (1.50 g) is added at once and the mixture is again vigorously stirred at the temperature of 50° C. […] After the triterpenoid is completely dissolved, the resulting clear solution is cooled to room temperature, filtered with a syringe filter (hydrophilic, pore size 0.22 μm) in order to be sterile and is placed in a refrigerator.
as §2, with “Method B: In a mixture of water (14.0 ml) and propylene glycol (6.0 ml), 2-hydroxypropyl-γ-cyklodextrin (7.00 g) is dissolved at the temperature of 50° C. under vigorous stirring. Into” for “Into”, “derivate (1.00” for “derivative (1.50”, “and” for “and the mixture”
Analytic Determination of the Concentration of Dissolved Triterpenoids in the Application Form and in Plasma Samples
as §1
The concentration was determined by comparison with standard and calculated to the original solution containing the inclusion compound.

[3] = solution method A: water, saturated sodium hydrogencarbonate solution, ethanol

Structure (SMILES) | oral availability [1] | Conc. of dissolved substance [2, 3] | Conc. of dissolved substance ([2]; solution method B: water, propylene glycol)
C=C(C)[C@@H]1CC[C@]2(C(=O)OCC)CC[C@]3(C)[C@H](CC[C@@H]4[C@@]5(C)CC[C@H](OC(=O)CCC(=O)O)C(C)(C)[C@@H]5CC[C@]43C)[C@@H]12 [2b] | prove oral availability | 45000 µg/mL | –
C=C(C)[C@@H]1CC[C@]2(C(=O)OC)CC[C@]3(C)[C@H](CC[C@@H]4[C@@]5(C)CC[C@H](OC(=O)CCCC(=O)O)C(C)(C)[C@@H]5CC[C@]43C)[C@@H]12 [2i] | prove oral availability | 51000 µg/mL | –
C=C(C=O)[C@@H]1CC[C@]2(C(=O)OCC)CC[C@]3(C)[C@H](CC[C@@H]4[C@@]5(C)CC[C@H](OC(=O)CCC(=O)O)C(C)(C)[C@@H]5CC[C@]43C)[C@@H]12 [3b] | prove oral availability | 55000 µg/mL | –
C=C(C)[C@@H]1CC[C@]2(C(=O)OCC(=O)O)CC[C@]3(C)[C@H](CC[C@@H]4[C@@]5(C)Cc6nccnc6C(C)(C)[C@@H]5CC[C@]43C)[C@@H]12 [6a] | prove oral availability | 56000 µg/mL | –
CC1(C)CCC23CCC4(C)C(CCC5C6(C)CC(NC(=O)CCC(=O)O)C(O)C(C)(C)C6CCC54C)C2C1OC3 (stereo not shown) [8a] | prove oral availability | 37000 µg/mL | –

More lines, now with the values ahead:

oral availability [1] | Conc. of dissolved substance [2, 3] | Conc. of dissolved substance ([2]; solution method B: water, propylene glycol) | Structure (SMILES)
prove oral availability | – | 56000 µg/mL | CCOC(=O)[C@@]12CC[C@]3(C)[C@H](CC[C@@H]4[C@@]5(C)CC[C@H](O[C@@H]6O[C@H](CO)[C@@H](O)[C@H](O)[C@H]6O)C(C)(C)[C@@H]5CC[C@]43C)C1=C(C(C)C)C(=O)C2 [4i]
prove oral availability | 49000 µg/mL | – | CC(C)C1=C2[C@H]3CC[C@@H]4[C@@]5(C)CC[C@H](OC(=O)CC(C)(C)C(=O)O)C(C)(C)[C@@H]5CC[C@@]4(C)[C@]3(C)CC[C@@]2(C(=O)O)CC1=O [4t]
prove oral availability | 50000 µg/mL | – | COC(=O)[C@@]12CC[C@]3(C)[C@H](CC[C@@H]4[C@@]5(C)CC[C@H](OC(=O)CCC(=O)O)C(C)(C)[C@@H]5CC[C@]43C)C1=C(C(C)C)C(=O)C2=O [5a]
